In test [1] the target is T1, binding of the HPV-16 E7 protein to the RBG protein (Homo sapiens, UniProt P06400).
T1 construct: Whole cell lysates of Hela cells were used as a source of human RBG protein; endogenous in cells; host or cells: HeLa whole cell lysate (RB); rabbit reticulocyte lysate, T7 promoter clone (E7)
T1 sequence (P06400 1-928): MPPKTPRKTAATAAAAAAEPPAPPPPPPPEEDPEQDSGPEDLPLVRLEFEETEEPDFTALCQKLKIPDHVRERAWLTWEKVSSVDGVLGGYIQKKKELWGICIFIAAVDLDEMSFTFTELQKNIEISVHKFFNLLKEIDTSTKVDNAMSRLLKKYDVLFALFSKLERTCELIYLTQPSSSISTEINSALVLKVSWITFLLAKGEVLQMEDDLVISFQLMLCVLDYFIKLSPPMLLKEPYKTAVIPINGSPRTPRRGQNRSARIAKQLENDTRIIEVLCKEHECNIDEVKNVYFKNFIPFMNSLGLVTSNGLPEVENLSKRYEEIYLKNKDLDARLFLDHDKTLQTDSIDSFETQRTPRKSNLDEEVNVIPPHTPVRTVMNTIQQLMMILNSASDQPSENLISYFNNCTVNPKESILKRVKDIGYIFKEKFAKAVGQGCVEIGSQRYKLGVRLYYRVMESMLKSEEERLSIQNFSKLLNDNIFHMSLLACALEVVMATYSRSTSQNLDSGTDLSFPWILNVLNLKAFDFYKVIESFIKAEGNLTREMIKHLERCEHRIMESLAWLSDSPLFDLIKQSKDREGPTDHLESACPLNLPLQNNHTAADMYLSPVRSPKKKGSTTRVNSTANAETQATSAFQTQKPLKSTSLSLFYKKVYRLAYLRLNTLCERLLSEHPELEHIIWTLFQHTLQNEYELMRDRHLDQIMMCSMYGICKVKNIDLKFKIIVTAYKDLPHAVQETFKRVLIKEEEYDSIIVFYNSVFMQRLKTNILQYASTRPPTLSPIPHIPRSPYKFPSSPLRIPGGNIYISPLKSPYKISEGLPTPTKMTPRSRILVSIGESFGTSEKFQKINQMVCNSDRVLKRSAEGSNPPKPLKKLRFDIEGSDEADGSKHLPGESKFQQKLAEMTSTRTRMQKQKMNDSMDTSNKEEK
Kind of test: Binding inhibition assay in vitro: immune precipitation of RBG protein from Hela lysate with radiolabelled HPV-16 E7 (Example 2). Conditions: for inhibition of the binding of the HPV E7 protein to the RBG protein (in words): summary statement. The procedure:
Peptide A, Peptide B, and Acetyl-GRP 20-27 were assayed for their abilities to inhibit the binding of the HPV-16 E7 protein to the RBG protein. Binding inhibition assays were carried out in vitro using a modification of the procedure described by N. Dyson et al., Science 243: 934-936 1989. Whole cell lysates of Hela cells were used as a source of human RBG protein. Rabbit reticulocyte cell free lysates that permit transcription and translation of exogenously added DNAs served as a source of HPV-16 E7 protein. The HPV-16 E7 gene was added to the rabbit reticulocyte lysate as a recombinant DNA clone under the control of a T7 promoter and incubated for 60 minutes at 30°C in the presence of radiolabeled methionine to allow transcription of the HPV-16 E7 gene and translation into E7 protein that contained radiolabeled methionine. The Hela cell and rabbit reticulocyte lysates were then mixed and incubated at 4°C for 90 minutes. After further manipulations a murine antibody against the RBG protein was added and incubated at 4°C for 60 minutes. Next, a rabbit anti-mouse IgG antibody and protein A sepharose was added to the reaction mixture in order to immune precipitate the RBG protein. At the same time, the E7 protein that was bound to the RBG protein was also precipitated. After an additional 60 minute incubation at 4°C the precipitated proteins were isolated by centrifugation and examined by polyacrylamide gel electrophoresis. Following electrophoresis, the polyacrylamide gel was dried and exposed to x-ray film. […] This biochemical protocol yields a quantitative estimate of the binding of HPV-16 E7 protein to the RBG protein in vitro.
These biochemical reactions can be run with or without added synthetic peptides to evaluate the effects of various concentrations of peptides on the binding of the HPV E7 protein to the RBG protein. In our studies, the addition of peptide A to these reaction mixtures at concentrations of 40 uM, 20 uM, or 2 uM caused a reduction in HPV-16 E7 protein binding to the RBG protein of 90%, 90% and 60% respectively. Addition of Peptide B or Acetyl-GRP 20-27 to the reaction mixture at concentrations up to 60 uM had no effect on HPV-16 E7 protein binding to the RBG protein.

The target in test [2] is T2, RBG Protein/E7 (Homo sapiens, UniProt P06400).
T2 sequence (P06400 1-928): T1 sequence (P06400 1-928)
As to the kind of experiment: In vitro solution assay for E7/RBG protein complex formation (immunoprecipitation, T24 cell lysates). The test is classed as binding. Also noted: Cell lysates used as a source of RBG protein were prepared from human T24 bladder carcinoma cells; endogenous in cells; host or cells: human T24 bladder carcinoma cell lysate. How it is done: (§1) An in vitro solution assay used for the detection of complex formation between E7 protein and p105-RB has been described by Dyson, et al (30). Cell lysates used as a source of RBG protein were prepared from human T24 bladder carcinoma cells as described (30). C36 and the control antibody Pb416 are monoclonal antibodies directed against RGB protein and SV40 large T protein, respectively. These antibodies were a generous gift from E. Harlow (Cold Spring Harbor Laboratories, Cold Spring Harbor, NY). Immunoprecipitates of E7/RBG protein binding reactions containing serially diluted peptide antagonists were dissolved in 35 µl gel loading buffer (30). Five µl was counted directly in Right Safe (Beckman, Palo Alto, CA.) scintillation cocktail and 25 µl was subjected to sodium dodecyl sulphate poly-acrylamide gel electrophoresis. Gels were dried and exposed to Kodak X-AR film at -70 °C overnight. In order to more rapidly assay large numbers of samples and more easily quantitate the binding results, we developed a plate binding assay for the detection of E7/RBG protein association. Purified recombinant E7 was resuspended in 0.1 M sodium carbonate, pH 9.5, at 1 ng/µl. Fifty microliters of this solution was placed into each well of a polyvinyl chloride microtiter plate (COSTAR 2596, Cambridge, MA.). The plate was gently agitated for 18 hours at 4 °C. The E7 solution was aspirated off and 100 µl of plate blocking buffer (PBB) [50mM Hepes 7.0, 250 mM sodium chloride, 0.1% NP4O, 0.5% (w/v) pigskin gelatin, and 0.02% sodium azide] was added per well. The buffer was removed and the plate was washed three times in the above buffer without the gelatin (PB). Five femtomoles of ³⁵S-methionine (Amersham 1100 Ci/mmole, Arlington Heights, IL.) labeled RBG protein prepared in a rabbit reticulocyte lysate was diluted in PB buffer containing various peptide antagonists to a final volume of 50 µl and added to the E7 treated plate. The plate was again incubated at 4 °C with agitation for 1 hour after which the solution was aspirated and each well washed five times with PB. The top of the plate was removed using a hot wire cutting apparatus (D. Lee, Sunnyvale, CA). Each well was placed in 3 ml of Ready Safe scintillation cocktail (Beckman, Palo Alto, CA.) and counted for 1 minute.
(§2) IC₅₀ values represent the average of at least two experiments in which each concentration of inhibitor was tested in triplicate. The variation between experiments was less than 10%. The 50% inhibition concentrations are micromolar. ND = not determined.

Test [3] concerns the target T2, RBG Protein/E7. Kind of test: Plate binding assay for E7/RBG protein association (E7-coated plate, 35S-labelled RBG protein). Further details: made in house; host or cells: rabbit reticulocyte lysate (RB, in vitro translation). How it is done: as §1, §2
The mark [4] stands for this setting: average of at least two experiments, triplicate, read-out: SOLUTION ASSAY RBG Protein/E7 IC₅₀.
The mark [5] stands for this setting: average of at least two experiments, triplicate, read-out: PLATE ASSAY RBG Protein/E7 IC₅₀.

Non-standard residues stand in square brackets, D forms with d. Residues, ends and D or L forms follow the SMILES beside them. No end group written: not given here. *: point of attachment. Abu = CC[C@H](N)C(=O)O; Acm = CC(=O)NC* Where only a bound is given, the exact number is not on record here.

As to `CSCC[C@H](NC(=O)[C@H](CC(C)C)NC(=O)[C@H](Cc1c[nH]cn1)NC(=O)CNC(=O)[C@@H](NC(=O)[C@H](C)NC(=O)[C@H](Cc1c[nH]c2ccccc12)NC(=O)[C@H](Cc1c[nH]cn1)NC(C)=O)C(C)C)C(N)=O` [Acetyl-GRP 20-27, reference compound], in test [1] (concentrations up to 60 uM), the “effect on HPV-16 E7 protein binding to the RBG protein” value is “no effect”. In addition, the “inhibition of the binding of the HPV E7 protein to the RBG protein (in words)” value in test [1] is recorded as “can not inhibit”.

On to `CC[C@H](NC(=O)[C@H](Cc1ccc(O)cc1)NC(=O)[C@H](CC(C)C)NC(=O)[C@H](CC(=O)O)NC(=O)[C@@H](N)[C@@H](C)O)C(=O)N[C@@H](Cc1ccc(O)cc1)C(=O)N[C@@H](CCC(=O)O)C(=O)N[C@@H](CCC(N)=O)C(=O)N[C@@H](CC(C)C)C(=O)N[C@@H](CC(N)=O)C(=O)N[C@@H](CC(=O)O)C(=O)N[C@@H](CO)C(=O)N[C@@H](CO)C(N)=O` [Peptide 17, [ABU²⁴]-E7-(20-32)-AMIDE] (H-TDLY[Abu]YEQLNDSS-NH2), for which the IC50 in test [2] (setting [4]) turned out to be 20 µM. Take `CC(=O)NCSC[C@H](NC(=O)[C@H](Cc1ccc(O)cc1)NC(=O)[C@H](CC(C)C)NC(=O)[C@H](CC(=O)O)NC(=O)[C@@H](N)[C@@H](C)O)C(=O)N[C@@H](Cc1ccc(O)cc1)C(=O)N[C@@H](CCC(=O)O)C(=O)N[C@@H](CCC(N)=O)C(=O)N[C@@H](CC(C)C)C(=O)N[C@@H](CC(N)=O)C(=O)N[C@@H](CC(=O)O)C(=O)N[C@@H](CO)C(=O)N[C@@H](CO)C(N)=O` [Peptide 18, [ACM²⁴]-E7-(20-32)-AMIDE] (H-TDLYC(Acm)YEQLNDSS-NH2): the IC50 in test [2] was more than 100 µM. Regarding “Ac-DLYCYEQLN-NH2 [Peptide 14, N-Ac-E7-(21-29)-AMIDE]”, the IC50 in test [2] is 1 µM; in test [3], 0.04 µM. Take “Ac-LYCYEQLNDSS-NH2 [Peptide 15, N-Ac-E7-(22-32)-AMIDE]”: the IC50 in test [2] (setting [4]) worked out at 10 µM; in test [3] (setting [5]), 25 µM. For the compound “Ac-LYCYEQLNDSS-NH2 [Peptide C, Ac-Leu-Tyr-Cys-Tyr-Glu-Gln-Leu-Asn-Asp-Ser-Ser-NH₂]”, the “concentration at which HPV-16 E7 protein binding to the RBG protein was inhibited” value in test [1] (concentrations as low as) is not above 1 µM. Turning to “Ac-TDLYCYEQLN [Peptide 12, N-Ac-E7-(20-29)-ACID]”, the IC50 in test [3] amounted to 0.06 µM. In turn, “Ac-TDLYCYEQLN-NH2 [Peptide 13, N-Ac-E7-(20-29)-AMIDE]” yielded an IC50 in test [3] of 0.08 µM. For “DLYCYEQLNDSS-NH2 [Peptide 10, E7-(21-32)-AMIDE]”, the IC50 came out at 20 µM in test [2] and 11.4 µM in test [3]. Take “E7-(14-29)-AMIDE (DLQPETTDLYCYEQLN-NH2; UniProt P03129 14-29, looked up, fragment) [Peptide 7]”: the IC50 in test [3] (setting [5]) was found to be 0.08 µM.

In the case of “E7-(18-29)-AMIDE (ETTDLYCYEQLN-NH2; UniProt P03129 18-29, looked up, fragment) [Peptide 8]”, the IC50 in test [2] (setting [4]) came out at 0.4 µM; in test [3] (setting [5]) it was 0.06 µM. With “TDLFCYEQLN-NH2 [Peptide 19, [Phe²³]-E7-(20-29)-AMIDE]”, the IC50 in test [2] (setting [4]) came to 1 µM; in test [3] (setting [5]), 0.6 µM. With “TDLYCFEQLN-NH2 [Peptide 20, [Phe²⁵]-E7-(20-29)-AMIDE]”, the IC50 was 15 µM in test [2] (setting [4]) and more than 50 µM in test [3] (setting [5]). Take “TDLYCYE-NH2 [Peptide 6, E7-(20-26)-AMIDE]”: the IC50 in test [2] (setting [4]) turned out to be 100 µM; in test [3] (setting [5]) it was 3.3 µM. For “TDLYCYENLND-NH2 [Peptide 23, [Asn²⁷]-E7-(20-30)-AMIDE]”, the IC50 in test [2] (setting [4]) came to 1 µM. As to “TDLYCYEQ-NH2 [Peptide 5, [Gln27]]-E7-(20-27)-AMIDE]”, the IC50 amounted to 50 µM in test [2] (setting [4]) and 9.1 µM in test [3] (setting [5]). The corresponding values for “TDLYCYEQL-NH2 [Peptide 4, E7-(20-28)-AMIDE]” are 5 µM and 0.7 µM.

Regarding “TDLYCYEQLN [Peptide 11, E7-(20-29)-ACID]”, in test [3], the IC50 is 0.08 µM. For “TDLYCYEQLN-NH2 [Peptide 9, E7-(20-29)-AMIDE]”, the IC50 turned out to be 1 µM in test [2] and 0.09 µM in test [3]. As for “TDLYCYEQLND-NH2 [Peptide 2, E7-(20-30)-AMIDE]”, the IC50 came to 1 µM in test [2] and 0.08 µM in test [3].

Turning to “TDLYCYEQLNDSS-NH2 [Peptide 1, E7-(20-32)-AMIDE]”, the IC50 is 1 µM in test [2] and 0.05 µM in test [3]. As to “TDLYCYEQLNDSS-NH2 [Peptide A, Thr-Asp-Leu-Tyr-Cys-Tyr-Glu-Gln-Leu-Asn-Asp-Ser-Ser-NH₂]”, the “reduction in HPV-16 E7 protein binding to the RBG protein” value in test [1] (peptide at 2 uM) came to 60%; in test [1] (peptide at 20 uM), 90%; in test [1] (peptide at 40 uM), 90%. The “inhibition of the binding of the HPV E7 protein to the RBG protein (in words)” value in test [1] was “inhibited”. For the compound “TDLYCYQQL-NH2 [Peptide 21, [Gln²⁶]-E7-(20-28)-AMIDE]”, the IC50 in test [2] (setting [4]) is more than 100 µM. On to “TDLYSYEQLNDSS-NH2 [Peptide 16, [Ser²⁴]-E7-(20-32)-AMIDE]”, for which the IC50 in test [2] (setting [4]) worked out at 40 µM. Turning to “TNLYCYEQL-NH2 [Peptide 22, [Asn²¹]-E7-(20-28)-AMIDE]”, the IC50 in test [2] (setting [4]) was more than 100 µM.

These data come from patent EP0412762A2, “Peptide inhibitors of human papilloma virus protein binding to retinoblastoma gene proteins” (priority 1989, dated 1991).
